Experiments:
[1] = system: Beet Armyworm (BAW) (Spodoptera exigua); assay: Bioassay on Beet Armyworm (BAW), 128-well diet tray assay; assay type: in vivo; conditions: 50 μg/cm2 on artificial diet, second instar larvae, five to seven days; for mortality at 50 µg/cm2: Spodoptera exigua, 168 h, read-out: Rating BAW (% Control (or Mortality))
Description: (§1) Certain molecules disclosed in this document were tested against BAW and CEW using procedures described in the following examples. In the reporting of the results, the “BAW & CEW Rating Table” was used (See Table Section).
Bioassays on BAW (Spodoptera exigua)
(§2) Trays were covered with a clear self-adhesive cover and held at 25° C., 14:10 light-dark for five to seven days. Percent mortality was recorded for the larvae in each well; activity in the eight wells was then averaged. The results are indicated in the table entitled “Table ABC: Biological Results” (See Table Section).

[2] = system: Corn Earworm (CEW) (Helicoverpa zea); assay: Bioassay on Corn Earworm (CEW), 128-well diet tray assay; assay type: in vivo; conditions: second instar larvae, five to seven days; for mortality at 50 µg/cm2 / mortality at 0.5 µg/cm2: Helicoverpa zea, 168 h; for mortality at 50 µg/cm2: read-out: Rating CEW (% Control (or Mortality)); for mortality at 0.5 µg/cm2: 0.5 μg/cm2 on artificial diet, read-out: Rating CEW (% Control (or Mortality)), *Tested at 0.5 μg/cm2
Description: as §1
Bioassays on CEW (Helicoverpa zea)
as §2

| Structure (SMILES) | mortality at 50 µg/cm2 [1] [%] | mortality at 50 µg/cm2 ([2]; 50 μg/cm2 on artificial diet) [%] | mortality at 0.5 µg/cm2 [2] [%] | Rating BAW (% Control (or Mortality)) [1] | Rating CEW (% Control (or Mortality)) ([2]; 50 μg/cm2 on artificial diet) |
| --- | --- | --- | --- | --- | --- |
| CC(C)c1ccccc1N/C(S)=C(\C#N)C(=O)Nc1ccc(-c2ncn(-c3ccc(OC(F)(F)F)cc3)n2)cc1 [Molecule A25, (Z)-2-cyano-3-((2-isopropylphenyl)amino)-3-mercapto-N-(4-(1-(4-(trifluoromethoxy)phenyl)-1H-1,2,4-triazol-3-yl)phenyl)acrylamide] | 0 | 0 to 50 | – | – | – |
| CC(C)c1ccccc1N/C(S)=N/C(=O)Nc1ccc(-c2ncn(-c3ccc(OC(F)(F)F)cc3)n2)cc1 [Molecule A48] | 50 to 100 | 50 to 100 | – | – | – |
| Cc1cccc(Cl)c1N/C(S)=N/C(=O)Nc1ccc(-c2ncn(-c3ccc(OC(F)(F)F)cc3)n2)cc1 [Molecule A70] | 50 to 100 | – | 50 to 100 | – | – |
| CC(C)c1ccccc1N/C(S)=N/C(=O)Nc1ccc(-c2nnc(-c3ccc(OC(F)(F)C(F)(F)F)cc3)o2)cc1 [Molecule A96] | 50 to 100 | 0 | – | – | – |
| COc1ccc(NC(=O)NC(=O)Nc2ccc(-c3ncn(-c4ccc(C(F)(F)F)cc4)n3)cc2)c(C)c1 [Molecule A53] | – | – | – | D (No activity noticed in this bioassay) | D (No activity noticed in this bioassay) |
| Cc1ccc(F)c(N2C(=O)CS/C2=N\C(=O)Nc2ccc(-c3ncn(-c4ccc(OC(F)(F)F)cc4)n3)cc2)c1 [Molecule A94] | 50 to 100 | – | 50 to 100 | – | – |
| N#C/C(C(=O)Nc1ccc(-c2ncn(-c3ccc(OC(F)(F)F)cc3)n2)cc1)=C(/S)Nc1ccccc1-c1ccccc1 [Molecule A27, (Z)-3-([1,1′-Biphenyl]-2-ylamino)-2-cyano-3-mercapto-N-(4-(1-(4-(trifluoromethoxy)phenyl)-1H-1,2,4-triazol-3-yl)phenyl)acrylamide] | 0 | 0 to 50 | – | – | – |
| Cc1ccccc1N/C(=N\C(=O)Nc1ccc(-c2ncn(-c3ccc(OC(F)(F)F)cc3)n2)cc1)SCOC(=O)C(C)C [Molecule A60] | 50 to 100 | 50 to 100 | – | – | – |
| COc1cc(C)c(N/C(S)=N/C(=O)Nc2ccc(-c3ncn(-c4ccc(OC(F)(F)F)cc4)n3)cc2)c(C)c1 [Molecule A50] | 50 to 100 | 50 to 100 | – | – | – |
| COc1ccc(N/C(=N\C(=O)Nc2ccc(-c3ncn(-c4ccc(OC(F)(F)F)cc4)n3)cc2)SCOC(=O)C(C)C)c(C)c1 [Molecule A56] | 50 to 100 | 50 to 100 | – | – | – |
| CC(C)c1cccc(Cl)c1N/C(S)=N/C(=O)Nc1ccc(-c2ncn(-c3ccc(OC(F)(F)F)cc3)n2)cc1 [Molecule A81] | 50 to 100 | 50 to 100 | – | – | – |
| Cc1cccc(N2C(=O)CS/C2=N\C(=O)Nc2ccc(-c3ncn(-c4ccc(OC(F)(F)F)cc4)n3)cc2)c1C [Molecule A75] | 50 to 100 | – | 50 to 100 | – | – |
| Cc1c(F)cccc1N/C(S)=N/C(=O)Nc1ccc(-c2ncn(-c3ccc(OC(F)(F)F)cc3)n2)cc1 [Molecule A79] | 50 to 100 | – | 50 to 100 | – | – |
| Cc1cc(C)c(N/C(S)=N/C(=O)Nc2ccc(-c3ncn(-c4ccc(OC(F)(F)F)cc4)n3)cc2)c(C)c1 [Molecule A49] | 50 to 100 | 50 to 100 | – | – | – |
| Cc1ccc(C(C)C)c(N2C(=O)CS/C2=N\C(=O)Nc2ccc(-c3ncn(-c4ccc(OC(F)(F)F)cc4)n3)cc2)c1 [Molecule A87] | 50 to 100 | – | 50 to 100 | – | – |
| Cc1ccc(Cl)cc1N1C(=O)CS/C1=N\C(=O)Nc1ccc(-c2ncn(-c3ccc(OC(F)(F)F)cc3)n2)cc1 [Molecule A76] | 50 to 100 | – | 50 to 100 | – | – |
| Cc1cc(C)c(N2C(=O)C(C)S/C2=N\C(=O)Nc2ccc(-c3ncn(-c4ccc(OC(F)(F)F)cc4)n3)cc2)c(C)c1 (centres unmarked) [Molecule A37] | 50 to 100 | 50 to 100 | – | – | – |
| CC(C)n1nccc1N/C(S)=N/C(=O)Nc1ccc(-c2ncn(-c3ccc(OC(F)(F)F)cc3)n2)cc1 [Molecule A119] | 50 to 100 | – | 0 to 50 | – | – |
| CCc1ccccc1NC(=O)NC(=O)Nc1ccc(-c2ncn(-c3ccc(OC(F)(F)F)cc3)n2)cc1 [Molecule A52] | 50 to 100 | 50 to 100 | – | – | – |

— US20150196033A1, “PESTICIDAL COMPOSITIONS AND PROCESSES RELATED THERETO” (priority 2012, published 2015)
